Reference: patent publication US20070270350A1, “Methods and Compositions for the Prevention and Treatment of Inflammatory Diseases or Conditions” (MUSC FOUNDATION FOR RESEARCH DEVELOPMENT, priority 2003, published 2007)

Experiments:
iNOS [1] = assay: LPS/IFN-induced NO production and iNOS gene expression in primary astrocytes; format: cell-based, rat; conditions: for effect on D-PDMP mediated inhibition of NO production: glycosphingolipid 5 and 10 μM added with D-PDMP 50 μM, 0.5 hr before LPS/IFN
KA-treated rats = assay: KA-induced seizure model (epilepsy model), rat hippocampus; format: in vivo; conditions: 3 days after KA
Experimental: FIG. 45. Experimental design for the use of statins as a therapeutic for kinic acid induced seizures (epilepsy model).
FIG. 46. […] The rats were orally pre-treated (7 days before) with atorvastatin (LP; 10 mg/kg) prior to KA (10 mg/kg, i.p.). At 3 days after KA injection, neuronal cell death in hippocampus was examined using cresyl violet stain.
FIG. 47. […] The rats were orally pre-treated (7 days before) with atorvastatin (LP; 10 mg/kg) prior to KA (10 mg/kg, i.p.). At 3 days after KA injection, infiltration of macrophages in the CA1 and CA3 regions of the hippocampus was examined using immunofluorescent labeling against for ED-1, as a marker of monocytes.
The rats were orally pre-treated (7 days before) with atorvastatin (LP; 10 mg/kg) prior to KA (10 mg/kg, i.p.). At 3 days after KA injection, neuronal cell death in the CA1 (A) and CA3 (B) regions of the hippocampus was examined using TUNNEL assay.
FIG. 49. […] The rats were orally pre-treated (7 days before) with lovastatin (Lov; 10 mg/kg) prior to KA (10 mg/kg, i.p.). At 3 days after KA injection, neuronal cell death in hippocampus was examined using cresyl violet stain.
(§1) FIG. 50A-C. […] The rats were orally pre-treated (7 days before) with atorvastatin (LP; 10 mg/kg) prior to KA (10 mg/kg, i.p.). At 3 days after KA injection, the expression of inflammatory genes (TNF-α, IL-1β, and iNOS) in hippocampus using real time PCR. The expression of each gene was normalized with GAPDH expression.
as §1, with “51A-C.” for “50A-C.”, “lovastatin (Lov;” for “atorvastatin (LP;”
Seizure index: stage 1, facial clonus; stage 2, nodding; stage 3, forelimb clonus; stage 4, forelimb clonus with rearing; stage 5, rearing, jumping, and falling. The rats were orally pre-treated (7 days before) with lovastatin or atorvastatin (Lov or LP; 10 mg/kg) prior to KA (10 mg/kg, i.p.).

iNOS [2] = assay: LPS-induced iNOS expression and iNOS promoter activity in primary astrocytes (AICAR); format: cell-based, rat; conditions: GGPP 10 μM, FPP 10 μM, mevalonate 10 mM with AICAR 1 mM
Experimental: Immunoblot Analysis: Cells were harvested in ice-cold lysis buffer (50 mM Tris-HCl, pH 7.4, containing 50 mM NaCl, 1 mM EDTA, 0.5 mM EGTA, 10% glycerol and protease inhibitor cocktail) and protein was estimated using Bradford reagent (Bio-Rad, USA). Fifty microgram of total protein/lane was separated by SDS-PAGE and blotted to nitrocellulose (Amersham Pharmacia Biotech). Blots were blocked for 1 h in 5% nonfat dry milk-TBS-0.1% Tween 20 and incubated overnight with primary antibody (1:1000) in 5% BSA-TBS-0.1% Tween 20 at 4° C. This was followed by incubation of 1 h with appropriate secondary peroxidase conjugated antibody (1:10,000, Sigma). Immunoreactivity was detected using the enhanced chemiluminescence detection method according to the manufacturer's instructions (Amersham Pharmacia Biotech) and subsequent exposure of the membrane to X-ray film. Antisense experiments: To decrease the levels of endogenous AMPK, astrocytes were pretreated for 48 h with 25 μm (of phosphothiorated antisense (AS) oligonucleotide ([NT]) directly against both the ? α1 and α2 ? subunits of AMPK (Culmsee et al., 2001) ? ? ? missense (MS) oligonucleotide ([NT]) was used in control cultures. Oligonucleotides were transfected with OligofectamineTM reagent as per manufacturer's instructions. Northern blot, gene array analysis and RT-PCR for cytokines expression: Total RNA was extracted with Trizol (Gibco) according to the manufacturer's protocol. Northern blot for iNOS was performed with 15 μg of RNA per reaction as described previously (Pahan et al., 1997). β-actin was used as control for RNA loading. Gene expression array for inflammatory cytokines (TNFα, IL-1β, IL-6 and IFN-γ) was used according to the manufacturer's protocol (Superarray). Signal quantitation was determined using imaging densitomter (Bio-Rad Lab, Hercules, Calif.). For RT-PCR, RNA was isolated from treated rat brain cerebral cortex by extracting in Trizol as above. cDNA was prepared from 5 μg of total RNA using poly dT as a primer and Moloney murine leukemia virus reverse transcriptase (Promega) as per manufacturer's instructions. 2 μl of cDNA was used to amplify the following products [given as product name, expected size, and forward (F) and reverse (R) primers used]: iNOS, 730 bp. ([NT]-1β, 623 bp. ([…]-α, 473 bp. ([…], 528 bp. […] Transcriptional assays: Primary astrocytes or microglial cell line (BV2) were transiently transfected with NF- ? B-or iNOS-luciferase reporter gene with ? -galactosidase in the presence or absence of dominant negative AMPKα2 or HA-IKK ? by lipofectamine-2000 (astrocytes) and lipofectamine-Plus (BV2, Invitrogen) according to the manufacturer instructions. pcDNA3 was used to normalize all groups to equal amounts of DNA. Luciferase activity was determined using a luciferase kit (Promega).

Rat Primary Astrrocytes = conditions: LPS 1.0 μg/ml, 24 h
Microglia = conditions: 10 μM lovastatin or 5 mM NaPA 8 h, LPS 1.0 μg/ml, 24 h
Macrophages = conditions: 10 μM lovastatin or 5 mM NaPA 8 h, LPS 1.0 μg/ml, 24 h
iNOS [3] = assay: LPS/IFN-induced NO production and iNOS expression in C6 glioma cells; format: cell-based, rat; conditions: exogenous glycosphingolipid with D-PDMP
Experimental: C6 rat glioma cells obtained from ATCC were maintained in Dulbecco's modified Eagle's medium (DMEM) (GIBCO, CA) containing 10% fetal bovine serum (FBS) (GIBCO) and 10 ? g/ml gentamicin. All the cultured cells were maintained at 37° C. in 5% CO2/95% air. At 80% confluency, the cells were incubated with serum free DMEM medium for 24 h prior to the incubation with LPS/IFN ? and other chemicals. Assay for NO production. Cells were cultured in 12-well plastic tissue culture plates. After the appropriate treatment, production of NO was determined by an assay of the culture supernatant for nitrite (Green et al., 1982). Briefly, 100 μl of culture supernatant was allowed to react with 100 μl of Griess reagent. The optical density of the assay samples was measured spectrophotometrically at 570 nm. Nitrite concentrations were calculated from a standard curve derived from the reaction of NaNO2 in fresh media. Western Blot Analysis. […] The protein concentration of samples was determined with the detergent compatible protein assay reagent (Bio-Rad Laboratories, CA) using bovine serum albumin (BSA) as the standard. Sample was boiled for 3 min with 0.1 volumes of 10% O-mercaptoethanol and 0.5% bromophenol blue mix. Fifty μg of total cellular protein was resolved by electrophoresis in 8 or 12% polyacrylamide gels, electro-transferred to polyvinylidene difluoride (PVDF) filter and blocked with Tween 20 containing Tris-buffered saline [TBST; 10 mM Trizma base (pH 7.4), 1% Tween 20, and 150 mM NaCl] with 5% skim milk. After incubation with antiserum against iNOS (BD PharMingen, CA), or hRas (Upstate Biotechnology, CA), or phospho-specific MAPK (p42/44) (Signal Transduction), in PVDF buffer for 2 h at room temperature, the filters were washed 3 times with TBST buffer and then incubated with horseradish peroxidase conjugated anti-rabbit or mouse IgG for 1 h. The membranes were autoradiographed by using ECL-plus (Amersham Pharmacia Biotech) after washing with TBST buffer. RT-PCR amplification. […] PCR amplification was conducted in 25 ? l of reaction mixture with 1.0 ? l of cDNA, […] and under the manufacturer's Taq polymerase conditions (Takara, […] Shuzo Co. Ltd, Japan). The sequence of primers used for PCR amplification are as follows; iNOS, (Forward-[NT], Reverse-[NT]), GalT-2 (Forward-[NT], Reverse-[NT]), GAPDH (Forward-[NT], Reverse-[NT]).

[4] = Comparison of biology of IFN-β, GA and statin + GSNO (Table 2)
Source text: FIGS. 28-52 provide additional data that show the effectiveness of statins in treating a variety of inflammatory diseases such as multiple sclerosis, spinal cord injury, stroke, and kinic acid induced seizures. Additionally, Table 2 provides data concerning the treatment of multiple sclerosis (MS) with statins as compared to two other approved MS drugs.

[5] = 10 mg/kg orally, 7 days before KA
[6] = PD98059 pretreatment 0.5 hr before LPS, 24 hrs

## 5′-CGCTTGAGCGCAGACATCTT-3′ (chemistry not given here) [antisense DNA oligomer, 20-mer antisense oligonucleotide targeted against rat lactosylceramide synthase (GalT-2)]
iNOS [1]; GalT-2 antisense 200 nM oligo, stimulated 2 d after transfection, 6 hrs mRNA, 24 hrs protein
  iNOS mRNA and protein levels: reduced significantly
iNOS [1]; GalT-2 antisense 200 nM oligo, stimulated 2 d after transfection, 24 hr
  LPS/IFN-mediated NO production: reduced significantly

## CC(C)c1c(C(=O)Nc2ccccc2)c(-c2ccccc2)c(-c2ccc(F)cc2)n1CC[C@@H](O)C[C@@H](O)CC(=O)O [Atorvastatin, atorvastatin]
KA-treated rats; [5]
  apoptosis induced by KA in hippocampus (TUNNEL assay, CA1 and CA3): inhibited
  infiltration of macrophages induced by KA in hippocampus (ED-1): inhibited
KA-treated rats; statin 10 mg/kg orally, 7 days before KA 10 mg/kg i.p.
  KA-induced neuronal cell death in hippocampus (cresyl violet stain): inhibited
KA-treated rats; statin 10 mg/kg orally, 7 days before KA
  expression of inflammatory genes (TNF-α, IL-1β, and iNOS) induced by KA in hippocampus (real time PCR): inhibited

## CC(C)=CCC/C(C)=C/CC/C(C)=C/COP(=O)(O)OP(=O)(O)O [FPP, farnesyl pyrophosphate]
iNOS [2]
  effect on inhibitory effect of AICAR on LPS induced iNOS-luciferase activity: did not reverse

## CC(C)=CCC/C(C)=C/CC/C(C)=C/CC/C(C)=C/COP(=O)(O)OP(=O)(O)O [GGPP, geranylgeranyl pyrophosphate]
iNOS [2]
  effect on inhibitory effect of AICAR on LPS induced iNOS-luciferase activity: did not reverse

## O=C([O-])Cc1ccccc1.[Na+] [NaPA]
Rat Primary Astrrocytes; 10 μM lovastatin or 5 mM NaPA 8 h, LPS only 5.3 +/− 0.8
  TNF-α: 0.4 +/− 0.06 ng/24 h/mg protein
Rat Primary Astrrocytes; 10 μM lovastatin or 5 mM NaPA 8 h, LPS only 10.4 +/− 1.5
  Il-1β: 1.1 +/− 0.2 ng/24 h/mg protein
Rat Primary Astrrocytes; 10 μM lovastatin or 5 mM NaPA 8 h, LPS only 136.5 +/− 16.8
  IL-6: 1.1 +/− 0.2 ng/24 h/mg protein
Rat Primary Astrrocytes; 10 μM lovastatin or 5 mM NaPA 8 h serum free, LPS only 25.3 +/− 3.2
  NO: 5.4 +/− 0.6 n mol/24 h/mg protein
Microglia; LPS only 14.5 +/− 2.1
  TNF-α: 1.3 +/− 0.2 ng/24 h/mg protein
Microglia; LPS only 28.2 +/− 3.4
  Il-1β: 2.4 +/− 0.2 ng/24 h/mg protein
Microglia; LPS only 81.2 +/− 6.9
  NO: 6.9 +/− 0.9 n mol/24 h/mg protein
Microglia; LPS only 295.6 +/− 33.5
  IL-6: 9.3 +/− 1.2 ng/24 h/mg protein
Macrophages; LPS only 18.6 +/− 2.3
  TNF-α: 1.7 +/− 0.2 ng/24 h/mg protein
Macrophages; LPS only 34.6 +/− 4.5
  Il-1β: 3.1 +/− 0.4 ng/24 h/mg protein
Macrophages; LPS only 118.5 +/− 12.5
  NO: 9.5 +/− 0.7 n mol/24 h/mg protein
Macrophages; LPS only 350.0 +/− 27.6
  IL-6: 10.2 +/− 1.4 ng/24 h/mg protein

## COc1cccc(-c2cc(=O)c3ccccc3o2)c1N [PD98059]
iNOS [1]; [6]
  NO production: inhibition
  iNOS expression: inhibition

## CC(O)(CCO)CC(=O)O (stereo not shown) [mevalonate]
iNOS [2]
  effect on inhibitory effect of AICAR on LPS induced iNOS-luciferase activity: did not reverse

## Glucosylceramide [GluCer]
iNOS [1]; 24 hrs
  effect on D-PDMP mediated inhibition of NO production: did not reverse
iNOS [3]
  effect on D-PDMP inhibition of NO production: no effect
  effect on D-PDMP inhibition of iNOS mRNA and protein expression: no effect

## galactosylceramide [GalCer]
iNOS [1]; 24 hrs
  effect on D-PDMP mediated inhibition of NO production: did not reverse

## glatiramer acetate [GA]
[4]
  Decrease expression of adhesion molecules: No
  Decrease inflammatory cytokines: Yes
  Decreased expression of MHCII: No
  Excludes leukocytes from entering CNS: No
  Inhibition of MMPs: No
  Inhibition of chemokine expression: No
  Inhibition of clonal expression of co-stimulatory molecules: Yes
  Interferences with T-cell activation: Yes
  Leukocyte trafficking across the blood brain barrier (BBB): No
  Neuroprotection: Yes
  Protection of BBB: No
  Reduced level of co-stimulatory molecules: No
  Th1 to Th2 deviation: Yes
